Drawing on US9624229B2, “Pyrimidine-2-amine compounds and their use as inhibitors of JAK kinases” (Rigel Pharmaceuticals, Inc., priority 2008, dated 2017), this text covers GI50 for 20 compounds.

Sequence of Ba/F3 V617F cells (O60674 whole entry V617F): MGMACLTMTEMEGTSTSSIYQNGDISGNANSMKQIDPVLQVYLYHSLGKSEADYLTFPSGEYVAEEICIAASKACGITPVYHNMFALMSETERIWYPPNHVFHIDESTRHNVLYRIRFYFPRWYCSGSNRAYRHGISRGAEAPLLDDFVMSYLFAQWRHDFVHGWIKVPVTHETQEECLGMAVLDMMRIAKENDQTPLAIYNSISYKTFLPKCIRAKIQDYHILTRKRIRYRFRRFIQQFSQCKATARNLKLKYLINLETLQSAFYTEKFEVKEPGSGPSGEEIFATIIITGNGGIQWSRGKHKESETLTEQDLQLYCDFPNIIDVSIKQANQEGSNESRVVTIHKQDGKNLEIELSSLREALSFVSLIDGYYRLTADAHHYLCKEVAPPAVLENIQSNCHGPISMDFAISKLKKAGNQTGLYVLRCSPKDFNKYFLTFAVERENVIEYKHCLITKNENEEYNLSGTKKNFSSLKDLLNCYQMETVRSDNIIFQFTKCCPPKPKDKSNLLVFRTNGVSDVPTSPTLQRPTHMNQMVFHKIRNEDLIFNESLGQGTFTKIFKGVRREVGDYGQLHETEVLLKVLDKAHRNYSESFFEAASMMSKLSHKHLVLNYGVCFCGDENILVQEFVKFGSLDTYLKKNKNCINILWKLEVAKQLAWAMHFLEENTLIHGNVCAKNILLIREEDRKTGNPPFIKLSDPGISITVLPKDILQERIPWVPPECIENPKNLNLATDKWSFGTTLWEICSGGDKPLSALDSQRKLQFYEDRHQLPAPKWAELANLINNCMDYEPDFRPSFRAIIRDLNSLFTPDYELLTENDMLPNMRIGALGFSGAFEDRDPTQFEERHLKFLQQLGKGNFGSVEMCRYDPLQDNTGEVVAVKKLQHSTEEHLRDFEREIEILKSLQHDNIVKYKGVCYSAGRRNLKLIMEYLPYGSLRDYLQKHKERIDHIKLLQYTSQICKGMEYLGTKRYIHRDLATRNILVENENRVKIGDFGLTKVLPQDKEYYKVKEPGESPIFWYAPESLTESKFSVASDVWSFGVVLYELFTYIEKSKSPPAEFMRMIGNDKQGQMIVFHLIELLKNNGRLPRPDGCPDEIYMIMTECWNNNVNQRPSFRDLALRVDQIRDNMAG

One assay concerns the target Ba/F3 V617F cells (Homo sapiens, UniProt O60674, V617F, cells depend on it). In words: Proliferation assay (Cell Titer-Glo, 72 h) utilizing Ba/F3 V617F cells. Type of assay: cell-based, mouse. The note with it: Ba/F3 V617F cells, proliferation, level of activity given as class symbol, read-out: IC50 (the source's name). Put shortly:
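Readout is CellTiter-Glo luminescence after 72 h at 37 °C, giving IC50. Cells: Ba/F3 V617F, 1×10^5 cells/mL in RPMI with 10% FBS, treated in duplicate with 3-fold dilution series made from 5 mM DMSO stock, 1:250 in 5% FBS medium, added at 2×.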
In general terms: Cellular ATP, detected with luciferase, serves as a proxy for viable cell number.
Regarding `Cc1cc(Nc2nccc(-c3ccc(OC4CCOCC4)nc3)n2)ccc1N1C2CCC1CC(N1CCOCC1)C2` (centres unmarked) [compound 285, 4-(6-(tetrahydropyran-4-yloxy)pyridin-3-yl)-N-(3-methyl-4-(3-(morpholin-4-yl)-8-azabicyclo[3.2.1]octan-8-yl)phenyl)pyrimidin-2-amine], the GI50 was less than 1000 nM.

For the compound `CC1(C)Oc2cc(-c3ccnc(Nc4ccc(C5CC6CC5N(S(C)(=O)=O)C6)cc4)n3)cnc2NC1=O` (centres unmarked) [compound 228, 4-(2,2-dimethyl-3-oxo-3,4-dihydro-2H-pyrido[3,2-b][1,4]oxazin-7-yl)-N-(4-(2-methylsulfonyl-2-azabicyclo[2.2.1]heptan-6-yl)phenyl)pyrimidin-2-amine], the GI50 was less than 1000 nM. Still for that read-out and setting: the value for `Cc1cc(Nc2nccc(-c3ccc4c(ccn4-c4ccncc4)c3)n2)ccc1N1C[C@@H]2C[C@H]1CN2C` [compound 232, 4-(1-(pyridin-4-yl)-1H-indol-5-yl)-N-(3-methyl-4-((1S,4S)-5-methyl-2,5-diazabicyclo[2.2.1]heptan-2-yl)phenyl)pyrimidin-2-amine] was less than 1000 nM; that for `CC(=O)N1C[C@@H]2C[C@H]1CN2c1ccc(Nc2nccc(-c3cnc4c(c3)OC(C)(C)C(=O)N4)n2)cc1C` [compound 251, 4-(2,2-dimethyl-3-oxo-3,4-dihydro-2H-pyrido[3,2-b][1,4]oxazin-7-yl)-N-(3-methyl-4-((1S,4S)-5-acetyl-2,5-diazabicyclo[2.2.1]heptan-2-yl)phenyl)pyrimidin-2-amine] was less than 1000 nM; that for `Cc1cc(Nc2nccc(-c3ccc(NCCCN(C)C)nc3)n2)ccc1N1C[C@@H]2C[C@H]1CO2` [compound 203, 4-(6-(3-dimethylamino)propylaminopyridin-3-yl)-N-(3-methyl-4-((1S,4S)-5-oxa-2-azabicyclo[2.2.1]heptan-2-yl)phenyl)pyrimidin-2-amine] was less than 1000 nM.

Staying with this assay, now noted: Ba/F3 V617F cells, proliferation, level of activity to inhibit JAK2, read-out: IC50 (the source's name).
With `CC1CCCN(c2cnc(-c3ccnc(Nc4ccc(N5C[C@@H]6C[C@H]5CN6C)c(F)c4)n3)cn2)C1` (stereo partly drawn) [compound 127, 4-(5-(3-methylpiperidin-1-yl)pyrazin-2-yl)-N-(3-fluoro-4-((1S,4S)-5-methyl-2,5-diazabicyclo[2.2.1]heptan-2-yl)phenyl)pyrimidin-2-amine], the GI50 is 1000 to 10000 nM. The same measure, in the same setting: the result for `CN1C[C@@H]2C[C@H]1CN2c1ccc(Nc2nccc(-c3ccc(NS(C)(=O)=O)nc3)n2)cc1F` [compound 153, 4-(6-(methylsulfonylamino)pyridin-3-yl)-N-(3-fluoro-4-((1S,4S)-5-methyl-2,5-diazabicyclo[2.2.1]heptan-2-yl)phenyl)pyrimidin-2-amine] reads 1000 to 10000 nM; that for `CC1(C)Oc2cc(-c3ccnc(Nc4ccc(N5C[C@@H]6C[C@H]5CN6)c(C(F)(F)F)c4)n3)cnc2NC1=O` [compound 172, 4-(2,2-dimethyl-3-oxo-3,4-dihydro-2H-pyrido[3,2-b][1,4]oxazin-7-yl)-N-(3-trifluoromethyl-4-((1S,4S)-2,5-diazabicyclo[2.2.1]heptan-2-yl)phenyl)pyrimidin-2-amine], less than 1000 nM. Same read-out and setting: the value for `Cc1cc(Nc2nccc(-c3ccc(C(=O)NC4=NCCS4)cc3)n2)ccc1N1C[C@@H]2C[C@H]1CN2C` [compound 45, 4-(4-(4,5-dihydrothiazol-2-ylcarbamoyl)phenyl)-N-(3-methyl-4-((1S,4S)-5-methyl-2,5-diazabicyclo[2.2.1]heptan-2-yl)phenyl)pyrimidin-2-amine] was 1000 to 10000 nM; that for `Cc1cc(Nc2nccc(-c3ccc(N(C)C)nc3)n2)ccc1N1C[C@@H]2C[C@H]1CN2C` [compound 1, 4-(6-(N,N-dimethylamino)pyridin-3-yl)-N-(3-methyl-4-((1S,4S)-5-methyl-2,5-diazabicyclo[2.2.1]heptan-2-yl)phenyl)pyrimidin-2-amine] was less than 1000 nM. `CN1CC2(C)CN(c3ccc(Nc4nccc(-c5ccc(N6CCOCC6)nc5)n4)cc3F)CC(C)(C1)C2` [compound 85, 4-(6-(morpholin-4-yl)pyridin-3-yl)-N-(3-fluoro-4-(1,5,7-trimethyl-3,7-diazabicyclo[3.3.1]nonan-3-yl)phenyl)pyrimidin-2-amine]: the GI50 was less than 1000 nM. Consider `Cc1cc(Nc2nccc(-c3cnc4c(c3)OC(C)(C)C(=O)N4)n2)ccc1N1C[C@H]2C[C@@H]1CN2C` [compound 71, 4-(2,2-dimethyl-3-oxo-3,4-dihydro-2H-pyrido[3,2-b][1,4]oxazin-7-yl)-N-(3-methyl-4-((1R,4R)-5-methyl-2,5-diazabicyclo[2.2.1]heptan-2-yl)phenyl)pyrimidin-2-amine], for which the GI50 was less than 1000 nM. Consider `CN1C[C@@H]2C[C@H]1CN2c1ccc(Nc2nccc(-c3cnc4c(c3)OC(C)(C)C(=O)N4)n2)cc1` [compound 137, 4-(2,2-dimethyl-3-oxo-3,4-dihydro-2H-pyrido[3,2-b][1,4]oxazin-7-yl)-N-(4-((1S,4S)-5-methyl-2,5-diazabicyclo[2.2.1]heptan-2-yl)phenyl)pyrimidin-2-amine], for which the GI50 is less than 1000 nM. As for `Cc1cc(Nc2nccc(-c3cnc4c(c3)OCCN4C)n2)ccc1N1C[C@@H]2C[C@H]1CN2C` [compound 8, 4-(4-methyl-3,4-dihydro-2H-pyrido[3,2-b][1,4]oxazin-7-yl)-N-(3-methyl-4-((1S,4S)-5-methyl-2,5-diazabicyclo[2.2.1]heptan-2-yl)phenyl)pyrimidin-2-amine], the GI50 is less than 1000 nM. Same read-out and setting: the value for `Cc1cc(Nc2nccc(-c3csc(N(C)C)n3)n2)ccc1N1C[C@@H]2C[C@H]1CN2C` [compound 175, 4-(2-(dimethylamino)thiazol-4-yl)-N-(3-methyl-4-((1S,4S)-5-methyl-2,5-diazabicyclo[2.2.1]heptan-2-yl)phenyl)pyrimidin-2-amine] was 1000 to 10000 nM. On the same count and under the same terms, the value for `CN1C[C@@H]2C[C@H]1CN2c1ccc(Nc2nccc(-c3ccc(NC4CCCCC4)nc3)n2)cc1C(F)(F)F` [compound 94, 4-(6-(cyclohexylamino)pyridin-3-yl)-N-(3-trifluoromethyl-4-((1S,4S)-5-methyl-2,5-diazabicyclo[2.2.1]heptan-2-yl)phenyl)pyrimidin-2-amine] was less than 1000 nM; that for `CN(C)c1ccc(-c2ccnc(Nc3ccc(N4C[C@@H]5C[C@H]4CN5C)c(F)c3)n2)cc1` [compound 15, 4-(4-(N,N-dimethylamino)phenyl)-N-(3-fluoro-4-((1S,4S)-5-methyl-2,5-diazabicyclo[2.2.1]heptan-2-yl)phenyl)pyrimidin-2-amine] was 1000 to 10000 nM; that for `Cc1cc(Nc2nccc(-c3ccc(N4CCOCC4)nc3)n2)ccc1N1C[C@@H]2C[C@H]1CN2CC1CC1` [compound 37, 4-(6-(morpholin-4-yl)pyridin-3-yl)-N-(3-methyl-4-((1S,4S)-5-(cyclopropyl)methyl-2,5-diazabicyclo[2.2.1]heptan-2-yl)phenyl)pyrimidin-2-amine] was less than 1000 nM. Still for that read-out and setting: the result for `Cc1cc(Nc2nccc(-c3cnc4c(c3)OCCN4)n2)ccc1N1CC2(C)CN(C)CC(C)(C1)C2` [compound 88, 4-(3,4-dihydro-2H-pyrido[3,2-b][1,4]oxazin-7-yl)-N-(3-methyl-4-(1,5,7-trimethyl-3,7-diazabicyclo[3.3.1]nonan-3-yl)phenyl)pyrimidin-2-amine] reads less than 1000 nM.

Still in this assay, the particulars now being: inhibition of JAK2 activity, proliferation of Ba/F3 V617F cells, read-out: IC50 (the source's name).
On to `CC(=O)N1CCN(c2ccc(-c3ccnc(Nc4ccc(N5C[C@@H]6C[C@H]5CN6C)nc4)n3)cn2)CC1` [compound 57, 4-(6-(4-acetylpiperazin-1-yl)pyridin-3-yl)-N-(6-((1S,4S)-5-methyl-2,5-diazabicyclo[2.2.1]heptan-2-yl)pyridin-3-yl)pyrimidin-2-amine], for which the GI50 was in the range of 1000 to 10000 nM.
